Experimental data reported in patent publication US6352713B1, “Nutritional composition” (Drugtech Corporation, priority 1999, dated 2002).

Legend:
[1] = cited from earlier work
[2] = pH of the solution/suspension of a composition in deionized water; format: physicochemical; details: ascorbic acid/calcium carbonate mixtures; amount equivalent to 50 mg ascorbic acid in 25 ml deionized water, stirred ten minutes
Description: As discussed herein, the pH of the present composition is measured by any suitable means well known to persons of ordinary skill in the art. […] Another non-limiting exemplary technique for measuring the pH of a dosage form is to use a glass mortar and pestle to grind one tablet until a finely divided uniform powder is obtained. The finely divided uniform powder is then added to an appropriate vessel and the pH is then determined as in manner of the preceding example.
To the beaker was added 25 ml of deionized water. The contents of the beaker were then vigorously stirred for ten minutes. The pH of the resultant solution/suspension was then measured.
To the beaker was added 25 ml of deionized water. The contents were then vigorously stirred for ten minutes. The pH of the resultant solution/suspension was then measured.
In comparison, a conventional chewable prenatal supplement containing 1000 IU of vitamin A, 400 IU of vitamin D3, 11 IU of vitamin E, 120 mg of vitamin C, 1 mg of folic acid, 2 mg of vitamin B1, 3 mg of riboflavin, 20 mg of niacin, 10 mg of vitamin B6, 12 mcg of vitamin B12 and 29 mg of iron was obtained. […] To the beaker was added 25 ml of deionized water. The contents were then vigorously stirred for ten minutes or until dissolved. The pH of the resultant solution/suspension was then measured.

Compound	share of dietary folic acid available to the body (bioavailability) [1]	pH Value [2]
Nc1nc2ncc(CNc3ccc(C(=O)N[C@@H](CCC(=O)O)C(=O)O)cc3)nc2c(=O)[nH]1 [Folic acid, pteroylglutamic acid]	about half	
O=C1O[C@H]([C@@H](O)CO)C(O)=C1O [Ascorbic Acid]		3.32
